Reference: patent US8759073B2, “Method for effectively controlling harmful organisms in large-scale culture of microalgae” (ENN Science & Technology Development Co., Ltd., priority 2009, dated 2014)

System: Chlorococcum sp.
Assay: Growth of cultured algae after treatment, 60 L glass plate reactor
Description: pH of the normally cultured microalgae is adjusted into various ranges. The growth rate of the microalgae is measured and their appearance is observed under a microscope.
Chlorococcum sp. (obtained from Qingdao Marine Institute) was cultured (pH 8.0-9.0 for the normal culture) in a 60 L glass plate reactor (manufactured by Longfang Jiangchuan plexiglass Co. Ltd., OP=10 cm) under a sunlight film (with a temperature of about 25 °C, a humidity of 60%-80%, and an illumination of 8000-20000 lux). Modified BG11 medium (see Table 3) was used. […] CO2 was aerated continuously. […] Then air was sufficiently aerated, and pH was raised to 7.0-8.0 in 4 hours.
(§1) Chlorococcum sp. (obtained from Qingdao Marine Institute) was cultured in a 60 L glass plate reactor (manufactured by Longfang Jiangchuan plexiglass Co. Ltd., OP=10 cm) under a sunlight film (with a temperature of about 25 °C, a humidity of 60%-80%, and an illumination of 8000-20000 lux) (pH 8.0-9.0 for the normal culture). Modified BG11 medium (see Table 3) was used. […] Then CO2 was aerated and pH was adjusted to 7.0-8.0.
Chlorococcum sp. (obtained from Qingdao Marine Institute) was cultured in a 60 L glass plate reactor (manufactured by Longfang Jiangchuan plexiglass Co. Ltd., OP=10 cm) under a sunlight film (with a temperature of about 25 °C, a humidity of 60%-80%, and an illumination of 8000-20000 lux) (pH 8.0-9.0 for the normal culture). Modified BG11 medium (see Table 3) was used. […] One hour later, CO2 was aerated to saturation (about pH 5.6) for 24 hour continuously. […] Then air was sufficiently aerated.
Chlorococcum sp. (obtained from Qingdao Marine Institute) was cultured in a 60 L glass plate reactor (manufactured by Longfang Jiangchuan plexiglass Co. Ltd., OP=10 cm) under a sunlight film (with a temperature of about 25 °C, a humidity of 60%-80%, and an illumination of 8000-20000 lux) (pH 8.0-9.0 for the normal culture). Modified BG11 medium (see Table 3) was used. […] Then air was sufficiently aerated.
as §1
Chlorococcum sp. (obtained from Qingdao Marine Institute) was cultured in a 60 L glass plate reactor (manufactured by Longfang Jiangchuan plexiglass Co. Ltd., OP=10 cm) under a sunlight film (with a temperature of about 25 °C, a humidity of 60%-80%, and an illumination of 8000-20000 lux) (pH 8.0-9.0 for the normal culture). Modified BG11 medium (see Table 3) was used.

SMILES: O=C=O [CO2, carbon dioxide]
- growth of the algae: rarely affected
- time until algae started to grow after recovery of pH7.0 or above (pH 7): 8 hours
- time until algae resumed to grow after air aeration (pH 9): Eighteen
